# Source: article PMC12475274, “Harnessing indole scaffolds to identify small-molecule IRE1α inhibitors modulating XBP1 mRNA splicing” (Nature Communications, 2025)
# Several values for one entry are separate records, joined by “and”; a condition that tells them apart may be missing. Equal entries are not always repeated.
# Key:
# [1] = biological target: T1, dephosphorylated IRE1α (547–977) (Homo sapiens, UniProt O75460); assay: FRET-based IRE1α RNase activity assay, dephosphorylated IRE1α; assay type: biochemical; conditions: for inhibition at 50 µM: FRET assay at 50 μM, mean (± SEM), read-out: IRE1α inhibition%
# T1 construct: Human IRE1α kinase and RNase domain (residues 547–977) was subcloned into pLIB plasmid; His tag (with TEV cleavage site) (N, cleaved yes); made in house; host or cells: Sf9 insect cells, baculovirus (Bac-to-Bac)
# T1 sequence (O75460 547-977): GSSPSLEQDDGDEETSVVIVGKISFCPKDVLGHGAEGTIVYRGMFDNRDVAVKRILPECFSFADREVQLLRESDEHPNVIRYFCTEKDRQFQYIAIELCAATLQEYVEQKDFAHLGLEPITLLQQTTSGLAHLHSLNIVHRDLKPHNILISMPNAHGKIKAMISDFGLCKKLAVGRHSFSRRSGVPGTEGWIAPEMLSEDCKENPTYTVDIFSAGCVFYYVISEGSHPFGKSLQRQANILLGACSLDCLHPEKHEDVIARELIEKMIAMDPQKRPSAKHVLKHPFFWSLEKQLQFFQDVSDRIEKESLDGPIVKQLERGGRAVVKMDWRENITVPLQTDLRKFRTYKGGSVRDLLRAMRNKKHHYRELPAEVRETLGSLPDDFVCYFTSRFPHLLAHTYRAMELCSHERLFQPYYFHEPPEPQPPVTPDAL
# Description: (§1) Human IRE1α kinase and RNase domain (residues 547–977) was subcloned into pLIB plasmid with a His tag and TEV cleavage site, and expressed using Bac-to-Bac expression system. The primers used are listed in Supplementary Table S3. The protein purification was performed following established procedures. Briefly, Sf9 cells were infected with baculovirus and incubated at 27 °C 110 rpm for 72 h. The cells were collected by centrifugation at 4000 × g for 15 min and the cell pellet was resuspended in lysis buffer (50 mM HEPES pH 7.5, 300 mM NaCl, 10% glycerol, 1 mM MgCl2, 1 mM TCEP, 5 mM imidazole), then supplemented with 1:10,000 benzonase (Sigma, E1014), 1 tablet/25 mL […]™ Protease Inhibitor Cocktail tablets (Sigma, S8830) and 1 mM PMSF before lysed by sonication at 4 °C. […] The protein elution was incubated with TEV protease to remove His tag at 4 °C overnight. Then the sample was diluted 1:6 in buffer (50 mM HEPES pH 7.5, 1 mM TCEP, 5% glycerol) and loaded onto a 5 mL pre-packaged Q HP anion exchange column (Cytiva, HiTrap Q HP) pre-equilibrated with QA buffer (50 mM HEPES pH 7.5, 50 mM NaCl, 1 mM TCEP, 5% glycerol). The unphosphorylated and phosphorylated protein was separated by eluting the protein with a very shallow gradient with 0-30% buffer QB (50 mM HEPES pH 7.5, 1 M NaCl, 1 mM TCEP, 5% glycerol) over 80 CV. Different peaks were collected separately and verified by LC-MS. The fully phosphorylated fraction was collected and further purified by size exclusion chromatography (Cytiva, HiLoad 16/600 Superdex 200 pg,) with SEC buffer (25 mM HEPES pH 7.5, 250 mM NaCl, 1 mM TCEP, 10% glycerol) and fractioned as monomeric peak. The rest protein fraction from the Q HP anion exchange column was incubated with Lambda protein phosphatase (New England BioLabs, P0753S) overnight at 4 °C, the dephosphorylation was confirmed by LC-MS. The unphosphorylated protein was further purified by size exclusion chromatography with the SEC buffer described above. The purified phosphorylated (p-IRE1α) and dephosphorylated (IRE1α) protein aliquots were stored at −80 °C for future usage.
# The dual-labeled RNA substrate with a FAM at 5’ and the BHQ-1 at 3’ containing the XBP1 sequence (5′FAM-[…]-3′BHQ1) was purchased from Integrated DNA Technologies (IDT). The FRET-based IRE1α RNase activity assay was carried out in reaction buffer containing 20 mM HEPES pH 7.5, 50 mM KOAc, 1 mM MgOAc2, 1 mM DTT, 0.05% v/v TritonX-100, at a total reaction volume of 20 μL in a 384-well black plate (4514, Corning). For unphosphorylated IRE1α (IRE1α), a final concentration of 40 nM IRE1α protein and 100 nM RNA substrate was used. For phosphorylated IRE1 (p-IRE1α), a final concentration of 4 nM p-IRE1α protein and 200 nM RNA substrate was used. The indicated compound and IRE1α protein were incubated for 30 min at room temperature before the substrate was added to the reaction. The plate was then kinetically read over one hour at room temperature using a TECAN Spark plate reader. The measurement was carried out using the fluorescence top reading mode at the excitation wavelength of 485 nm and the emission wavelength of 535 nm with a 10 nm excitation and emission bandwidth. The linear part of the reaction curve was adopted and fitted with sample linear regression to obtain the slope, and the slope was adopted to reflect the reaction rate. The inhibition % was calculated by using the equation: inhibition% = 100 × (slope of DMSO control – slope of the sample)/(slope of DMSO control – slope of blank control), DMSO control: DMSO with protein and RNA substrate; Blank control: DMSO with RNA substrate. The IC50 values were calculated using the concentration-response model in GraphPad Prism 9. […]
# [2] = biological target: T2, phosphorylated IRE1α (p-IRE1α) (Homo sapiens, UniProt O75460); assay: FRET-based IRE1α RNase activity assay, phosphorylated IRE1α; assay type: biochemical; conditions: for inhibition at 50 µM: FRET assay at 50 μM, mean (± SEM), read-out: p-IRE1α inhibition%
# T2 construct: Human IRE1α kinase and RNase domain (residues 547–977) was subcloned into pLIB plasmid; His tag (with TEV cleavage site) (N, cleaved yes); made in house; host or cells: Sf9 insect cells, baculovirus (Bac-to-Bac)
# T2 sequence (O75460 547-977): as above
# Description: as §1
# The dual-labeled RNA substrate with a FAM at 5’ and the BHQ-1 at 3’ containing the XBP1 sequence (5′FAM-[…]-3′BHQ1) was purchased from Integrated DNA Technologies (IDT). The FRET-based IRE1α RNase activity assay was carried out in reaction buffer containing 20 mM HEPES pH 7.5, 50 mM KOAc, 1 mM MgOAc2, 1 mM DTT, 0.05% v/v TritonX-100, at a total reaction volume of 20 μL in a 384-well black plate (4514, Corning). For unphosphorylated IRE1α (IRE1α), a final concentration of 40 nM IRE1α protein and 100 nM RNA substrate was used. For phosphorylated IRE1 (p-IRE1α), a final concentration of 4 nM p-IRE1α protein and 200 nM RNA substrate was used. The indicated compound and IRE1α protein were incubated for 30 min at room temperature before the substrate was added to the reaction. The plate was then kinetically read over one hour at room temperature using a TECAN Spark plate reader. The measurement was carried out using the fluorescence top reading mode at the excitation wavelength of 485 nm and the emission wavelength of 535 nm with a 10 nm excitation and emission bandwidth. The linear part of the reaction curve was adopted and fitted with sample linear regression to obtain the slope, and the slope was adopted to reflect the reaction rate. The inhibition % was calculated by using the equation: inhibition% = 100 × (slope of DMSO control – slope of the sample)/(slope of DMSO control – slope of blank control), DMSO control: DMSO with protein and RNA substrate; Blank control: DMSO with RNA substrate. The IC50 values were calculated using the concentration-response model in GraphPad Prism 9.
Compound,inhibition at 50 µM [1] [%],inhibition at 50 µM [2] [%],"Inhibiton% @ 50 Μm ([1]; IRE1a, @ 50 Μm, individual replicates (n1-n3), Supplementary Fig. 2a)","Inhibiton% @ 50 Μm, mean ([1]; IRE1a, @ 50 Μm, mean, Supplementary Fig. 2a) [%]","Inhibiton% @ 50 Μm ([2]; p-IRE1a, @ 50 Μm, individual replicates (n1-n3), Supplementary Fig. 2a)","Inhibiton% @ 50 Μm, mean ([2]; p-IRE1a, @ 50 Μm, mean, Supplementary Fig. 2a) [%]"
COC(=O)CCCc1c(C)n(C(=O)c2ccc(Cl)cc2)c2ccc(OC)cc12 [cms06],< 30,< 30,–,–,–,–
COc1ccc2c(c1)c(CC(=O)OC(C)C)c(C)n2C(=O)c1ccc(Cl)cc1 [cms07],< 30,< 30,–,–,–,–
COc1ccc2c(c1)c(C(C)=O)c(C)n2C(=O)c1ccc(Cl)cc1 [cms08],< 30,< 30,–,–,–,–
COc1ccc2c(c1)c(Cc1ccccc1)c(C)n2C(=O)c1ccc(Cl)cc1 [cms09],< 30,< 30,–,–,–,–
COc1ccc2c(c1)c(Cc1ccc(O)cc1)c(C)n2C(=O)c1ccc(Cl)cc1 [cms10],< 30,< 30,–,–,–,–
COc1ccc2c(c1)c(CC(=O)N1CCOCC1)c(C)n2C(=O)c1ccc(Cl)cc1 [cms11],< 30,< 30,–,–,–,–
COc1ccc2c(c1)c(CC(=O)O)c(C)n2C(=O)c1ccc(N(C)C)cc1 [idm06],–,–,31.43% and 32.06% and 32.96% and 41.19% and 38.68%,35.27,36.04% and 36.79% and 33.53% and 36.40% and 23.29% and 29.46%,32.58
